Laboratory results reported in paper PMC9246869, “Allosteric inhibition of PPM1D serine/threonine phosphatase via an altered conformational state” (Nature Communications, 2022).
Values joined by “and” are separate entries in the source; they are usually repeats but may differ in a detail not shown here. Equal entries are not always repeated.

Target: T1, PPM1D1–420 (Homo sapiens, UniProt O15297)
T1 construct: PPM1D1–420 was PCR-amplified from the synthesized gene with BsaI sites; His(6)-SUMO (N, cleaved yes); made in house; host or cells: E. coli BL21 (DE3)
T1 sequence (O15297 1-420): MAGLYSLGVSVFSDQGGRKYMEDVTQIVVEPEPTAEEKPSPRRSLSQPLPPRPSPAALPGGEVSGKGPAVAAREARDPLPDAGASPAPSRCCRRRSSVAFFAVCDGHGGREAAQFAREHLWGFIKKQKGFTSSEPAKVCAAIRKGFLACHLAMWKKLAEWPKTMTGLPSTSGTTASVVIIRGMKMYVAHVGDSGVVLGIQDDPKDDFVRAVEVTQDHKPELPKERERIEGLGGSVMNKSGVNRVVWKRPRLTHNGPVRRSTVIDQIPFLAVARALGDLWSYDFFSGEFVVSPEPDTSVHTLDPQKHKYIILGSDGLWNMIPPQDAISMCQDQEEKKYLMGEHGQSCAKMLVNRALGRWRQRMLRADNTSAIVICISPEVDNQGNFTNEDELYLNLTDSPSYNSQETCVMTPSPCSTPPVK
Assay: Differential scanning fluorimetry (DSF)
Type: binding
Parameters: key to DSF Trial 1 (Tm) / DSF Trial 2 (Tm) / DSF Trial 3 (Tm) / DSF average (Tm) / DSF melting temperature with GSK2830371 / DSF melting temperature with GSK2830371, Average: melting temperature Tm in °C
Method: The purified protein constructs were mixed in the assay buffer containing 25 mM HEPES pH 7.5, 10 mM MgCl2, 150 mM NaCl. The sample preparation for the DSF assay included incubating the protein constructs (final concentration 0.2–0.4 mg/mL) with either DMSO alone (control) or with 40 µM GSK2830371 for 30 min before the addition of the Sypro orange dye (final concentration 10×). The final reaction volume of 10 µL was pipetted into a 384 multi-well clear plate (Light Cycler 480), sealed using a foil and spun down at 1000 × g for 2 min. The fluorescence emission intensity of the Sypro Orange dye was monitored in a LightCycler-480 instrument by running the Protein Melt program. The program was run in a continuous acquisition mode from 25 °C to 95 °C with a ramp rate of 0.06 °C/s (with 10 acquisitions/°C). The data (first derivative of the fluorescence signal as a function of temperature) was analyzed using the LightCycler-480 software for measuring the Tm values with and without the compound. A separate control with buffer alone and buffer with compound was run in the same plate to subtract out the potential interactions of the buffer components and/or the compound with the dye.

[1] = source data Fig 3C, with GSK, in °C (unit assumed)

With `Cc1ncc(Cl)cc1NCc1ccc(C(=O)N[C@@H](CC2CCCC2)C(=O)NC2CC2)s1` [GSK2830371] as the molecule, how does the “DSF melting temperature with GSK2830371, Average” value (PPM1D 1-420, average of 4 trials, in °C (unit assumed)) read?
The value was 59.7917.

And the “DSF melting temperature with GSK2830371” value (PPM1D 1-420, individual trials, in °C (unit assumed))?
Its value is 59.846 and 59.6596 and 59.8596 and 59.8015.

What about the ΔTm at 40 µM (PPM1D1–420, 40 µM compound, read-out: thermal shift by DSF) of the same molecule?
Its ΔTm at 40 µM is ~8 °C.

What about the “DSF Trial 1 (melting temperature)” value (Sup Fig 2D, protein with GSK vs WT (DMSO), trial 1) of the same molecule?
Its value is 59.84 ˚C.

And the “DSF Trial 2 (melting temperature)” value (Sup Fig 2D, protein with GSK vs WT (DMSO), trial 2)?
The value was 59.65 ˚C.

And the “DSF Trial 3 (melting temperature)” value (Sup Fig 2D, protein with GSK vs WT (DMSO), trial 3)?
The value was 59.85 ˚C.

And the “DSF Average (melting temperature)” value (Sup Fig 2D, protein with GSK, average of trials)?
The value was 59.78 ˚C.

What about the “DSF average (Tm)” value (source data Fig 3C, with GSK, column head empty, in °C (unit assumed)) of the same molecule?
The value was 59.78.

And the “DSF Trial 1 (Tm)” value [1]?
The value was 59.84.

What about the “DSF Trial 2 (Tm)” value [1] of the same molecule?
The value was 59.65.

And the “DSF Trial 3 (Tm)” value [1]?
The value was 59.85.
